Holding throughout (type): cell-based
For experiment [1], the target named is T1, L858R/C797S EGFR (Homo sapiens, UniProt P00533, C797S/L858R).
T1 construct: expressed in transfected cells; host or cells: H1975 clone #8 (lentiviral over-expression, endogenous EGFR knocked out by sgRNA)
Put plainly: EGFR degradation HTRF assay in H1975-clone #8 (LC) cells. Conditions: H1975 #8 LC (L858R/C797S), 16h treatment; for DC50: HTRF; for Dmax: NCI-H1975, maximum percentage of degradation. From the text:
(§1) H1975-clone #28(Del19/T790M/C797S, or abbr: DTC), H1975-clone #23(Del19/C797S, or abbr: DC), H1975-clone #25(L858R/T790M/C797S, or abbr: LTC) and H1975-clone #8 (L858R/C797S, or abbr: LC). EGFR-Del19:T790M/C797S, EGFR-Del19/C797S, EGFR-L858R/T790M/C797S and EGFR-L858R/C797S were stably expressed in H1975 cell lines by lentivirus-mediated over-expression, respectively. The EGFR over-expressed cells then underwent knockout, in which the EGFR targeting sgRNA was designed to only target the endogenous EGFR copies and preserve the exogenous EGFR copies. Followed by the knockout, the edited H1975 cells were seeded in 96 well plates at the concentration of […], cultured for about 2 weeks to allow single clones formation. The formed clones were screened by DNA sequencing and whole exon sequencing analysis for the desired edition. H1975-clone #28, H1975-clone #23, H1975-clone #25 and H1975-clone #8 were finally confirmed as homozygous Del19/T790M/C797S EGFR, Dell9/C797S EGFR, L858R/T790M/C797S EGFR and L858R/C797S EGFR clones, respectively.
(§2) H1975-#25, H1975-#28, H1975-#23 and H1975-#8 cells are treated with compounds diluted in 0.2% DMSO cell culture medium on day 2, incubate for 16h, 37° C., 5% CO2. the final concentration of compounds in all assay is start with 10 uM, 5-fold dilution, total 8 doses were included.
(§3) After 16h treatment, add HTRF lysis buffer to each well; seal the plate and incubate 1 hour at room temperature on a plate shaker; Once the cells are lysed, 16 μL of cell lysate are transferred to a PE 384-well HTRF detection plate; 4 μL of pre-mixed HTRF antibodies are added to each well; Cover the plate with a plate sealer, spin 1000 rpm for 1 min, Incubate overnight at room temperature; Read on BMG PheraStar with HTRF protocol (337 nm-665 nm-620 nm).
(§4) The IC50 (DC50) value of a compound can be obtained by fitting the following equation
(§5) Y=Bottom+(TOP−Bottom)/(1+((IC50/X)^hillslope))
(§6) Wherein, X and Y are known values, and IC50, Hillslope, Top and Bottom are the parameters obtained by fitting with software. Y is the inhibition percentage (calculated from the equation), X is the concentration of the compound: IC50 is the concentration of the compound when the 50% inhibition is reached. The smaller the IC50 value is, the stronger the inhibitory ability of the compound is. Vice versa, the higher the IC50 value is, the weaker the ability the inhibitory ability of the compound is: Hillslope represents the slope of the fitted curve, generally around 1*; Bottom represents the minimum value of the curve obtained by data fitting, which is generally 0%±20%; Top represents the maximum value of the curve obtained by data fitting, which is generally 100%±20%. The experimental data were fitted by calculating and analyzing with Dotmatics data analysis software.

Experiment [2] relates to Del19/T790M/C797S EGFR. In words: EGFR degradation HTRF assay in H1975-clone #28 (DTC) cells. To be noted: H1975 # 28 DTC (Del19/T790M/C797S), 16h treatment; for DC50: HTRF; for Dmax (%): maximum percentage of degradation. The method in brief:
(§7)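 H1975 clones with endogenous EGFR knocked out and lentivirally expressed mutant EGFR treated 16 h at 37 °C with compounds, 8 doses from 10 uM, 5-fold dilutions, 0.2% DMSO. Lysates read by HTRF (665/620 nm) overnight; DC50 from four-parameter fit.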

The target of experiment [3] is T2, L858R/T790M/C797S EGFR (Homo sapiens, UniProt P00533, C797S/L858R/T790M).
T2 construct: expressed in transfected cells; host or cells: H1975 clone #25 (lentiviral over-expression, endogenous EGFR knocked out by sgRNA)
T2 sequence (P00533 25-1210 T790M/C797S/L858R): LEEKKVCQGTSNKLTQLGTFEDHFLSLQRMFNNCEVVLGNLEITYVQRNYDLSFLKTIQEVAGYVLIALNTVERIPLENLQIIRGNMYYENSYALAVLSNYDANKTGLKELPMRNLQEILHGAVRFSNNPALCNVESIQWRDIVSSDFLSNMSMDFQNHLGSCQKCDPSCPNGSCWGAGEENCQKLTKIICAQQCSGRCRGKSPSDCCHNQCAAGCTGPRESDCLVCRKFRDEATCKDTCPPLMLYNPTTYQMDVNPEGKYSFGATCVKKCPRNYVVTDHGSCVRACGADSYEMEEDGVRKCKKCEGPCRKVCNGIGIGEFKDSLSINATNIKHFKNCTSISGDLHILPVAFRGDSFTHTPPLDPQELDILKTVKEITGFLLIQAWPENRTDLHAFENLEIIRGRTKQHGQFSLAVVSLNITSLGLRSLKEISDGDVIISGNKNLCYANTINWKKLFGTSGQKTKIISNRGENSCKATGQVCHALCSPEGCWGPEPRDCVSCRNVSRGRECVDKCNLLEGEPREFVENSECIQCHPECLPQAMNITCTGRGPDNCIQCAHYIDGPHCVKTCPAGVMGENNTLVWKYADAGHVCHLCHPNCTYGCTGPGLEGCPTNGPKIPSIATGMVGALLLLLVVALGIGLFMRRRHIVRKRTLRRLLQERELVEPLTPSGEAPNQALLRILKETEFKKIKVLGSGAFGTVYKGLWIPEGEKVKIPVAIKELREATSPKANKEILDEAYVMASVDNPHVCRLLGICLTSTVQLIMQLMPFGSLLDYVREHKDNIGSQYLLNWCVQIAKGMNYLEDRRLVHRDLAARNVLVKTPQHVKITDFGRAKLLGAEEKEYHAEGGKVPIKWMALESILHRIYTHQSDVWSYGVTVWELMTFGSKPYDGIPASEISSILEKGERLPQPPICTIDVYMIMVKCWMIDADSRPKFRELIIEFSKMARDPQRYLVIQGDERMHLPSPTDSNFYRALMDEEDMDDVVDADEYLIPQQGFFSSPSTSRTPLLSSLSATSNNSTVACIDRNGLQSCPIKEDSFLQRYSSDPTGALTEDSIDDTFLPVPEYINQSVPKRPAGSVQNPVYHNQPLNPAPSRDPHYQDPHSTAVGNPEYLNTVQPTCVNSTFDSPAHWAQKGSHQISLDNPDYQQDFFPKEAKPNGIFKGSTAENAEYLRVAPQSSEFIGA
In words: EGFR degradation HTRF assay in H1975-clone #25 (LTC) cells. To be noted: 16h treatment; for DC50: H1975 # 25-LTC (L858R/T790M/C797S), HTRF; for Dmax: NCI-H1975, H1975 # 25-LTC (L858R/T790M/C797S), maximum percentage of degradation. The method in brief:
as §7

For experiment [4], the system named is Del19/C797S EGFR. Put plainly: EGFR degradation HTRF assay in H1975-clone #23 (DC) cells. Conditions: H1975 #23 DC (Del19/C797S), 16h treatment; for DC50: HTRF; for Dmax (%): maximum percentage of degradation.
From the text: as §1, §2, §3, §4, §5, §6

This is an account of results in patent publication US20240342292A1, “Compounds for the Degradation of EGFR Kinase” (BeiGene Switzerland GmbH, priority 2021, published 2024).

T1 sequence (P00533 25-1210 C797S/L858R): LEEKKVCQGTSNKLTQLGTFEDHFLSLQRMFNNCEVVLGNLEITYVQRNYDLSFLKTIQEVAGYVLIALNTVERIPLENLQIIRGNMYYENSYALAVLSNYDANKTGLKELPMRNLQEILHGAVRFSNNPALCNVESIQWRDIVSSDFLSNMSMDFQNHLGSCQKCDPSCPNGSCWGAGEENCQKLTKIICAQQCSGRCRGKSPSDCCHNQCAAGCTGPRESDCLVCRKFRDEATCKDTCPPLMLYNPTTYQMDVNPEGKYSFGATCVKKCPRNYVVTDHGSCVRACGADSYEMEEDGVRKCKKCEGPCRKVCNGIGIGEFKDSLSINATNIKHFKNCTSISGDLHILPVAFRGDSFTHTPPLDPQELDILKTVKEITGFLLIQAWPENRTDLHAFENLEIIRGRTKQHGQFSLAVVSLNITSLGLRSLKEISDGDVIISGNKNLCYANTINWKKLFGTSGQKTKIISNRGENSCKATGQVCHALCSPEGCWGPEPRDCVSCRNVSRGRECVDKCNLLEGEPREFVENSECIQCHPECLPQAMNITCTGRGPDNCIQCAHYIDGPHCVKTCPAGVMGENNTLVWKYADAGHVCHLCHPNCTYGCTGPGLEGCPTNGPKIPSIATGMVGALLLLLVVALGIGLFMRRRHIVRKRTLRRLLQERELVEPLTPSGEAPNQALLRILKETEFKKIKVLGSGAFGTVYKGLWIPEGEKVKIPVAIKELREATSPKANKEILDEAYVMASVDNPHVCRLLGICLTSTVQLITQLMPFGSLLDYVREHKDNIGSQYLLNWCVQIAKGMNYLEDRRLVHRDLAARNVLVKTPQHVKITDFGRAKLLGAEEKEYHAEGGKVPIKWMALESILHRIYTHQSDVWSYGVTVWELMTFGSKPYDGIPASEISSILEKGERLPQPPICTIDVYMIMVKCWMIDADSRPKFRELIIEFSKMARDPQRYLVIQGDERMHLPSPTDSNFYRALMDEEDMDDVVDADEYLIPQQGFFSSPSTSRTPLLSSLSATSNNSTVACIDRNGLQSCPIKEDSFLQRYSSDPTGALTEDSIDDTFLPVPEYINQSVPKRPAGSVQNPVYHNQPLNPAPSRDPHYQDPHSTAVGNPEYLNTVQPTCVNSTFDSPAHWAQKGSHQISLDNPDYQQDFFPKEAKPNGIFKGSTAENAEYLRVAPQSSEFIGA

On to `Cc1cc2cc(n1)-c1cnn(C)c1OCCC[C@@H](C)CN1/C(=N/C2=O)Nc2ccc(CN3CCC(N4CCN(C(=O)[C@@H]5CCN(c6cc(F)c([C@H]7CCC(=O)NC7=O)c(F)c6)C5)CC4)CC3)cc21` [Example 6, (R)-3-(2,6-difluoro-4-((R)-3-(4-(1-(((R,E)-1^1,2^6,7-trimethyl-3-oxo-5^2,5^3-dihydro-1^1H,5^1H-11-oxa-4-aza-5(2,1)-benzo[d]imidazola-2(2,4)-pyridina-1(4,5)-pyrazolacycloundecaphane-5^6-yl)methyl)piperidin-4-yl)piperazine-1-carbonyl)pyrrolidin-1-yl)phenyl)piperidine-2,6-dione], for which the DC50 in experiment [1] came to 3 nM; in experiment [2], 0.8 nM; in experiment [3], 1.1 nM; in experiment [4], 1.7 nM. In addition, the Dmax in experiment [1] worked out at 63.1%; in experiment [3] it was 89.9%. Also, the entries for the “Dmax (%)” value in experiment [2] and in experiment [4] were 85.7% and 78.2%, respectively.

With `Cc1cc2cc(n1)-c1cnn(C)c1OCCC[C@@H](C)CN1/C(=N/C2=O)Nc2ccc(CN3CCC4(CC3)CCN(C(=O)[C@@H]3CCN(c5cc(F)c([C@H]6CCC(=O)NC6=O)c(F)c5)C3)CC4)cc21` [Example 9, (R)-3-(2,6-difluoro-4-((R)-3-(9-(((R,E)-1^1,2^6,7-trimethyl-3-oxo-5^2,5^3-dihydro-1^1H,5^1H-11-oxa-4-aza-5(2,1)-benzo[d]imidazola-2(2,4)-pyridina-1(4,5)-pyrazolacycloundecaphane-5^6-yl)methyl)-3,9-diazaspiro[5.5]undecane-3-carbonyl)pyrrolidin-1-yl)phenyl)piperidine-2,6-dione], the DC50 in experiment [1] turned out to be 3.2 nM; in experiment [2] it was 1.7 nM; in experiment [3], 0.8 nM; in experiment [4], 1 nM. Besides, the Dmax worked out at 64.6% in experiment [1] and 90.1% in experiment [3]. The “Dmax (%)” value in experiment [2] is on record as 76.4%; in experiment [4] it was 82.6%.
